This assay relates to BDF1 mice, P388 leukemia ip, median survival T/C. Put plainly: NCI In Vivo Anticancer Drug Screen. Data for tumor model P388 Leukemia (intraperitoneal) in B6D2F1 (BDF1) mice. To be noted: endpoint: median survival time, higher = longer survival. An outline of the steps:
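Each value expresses how treatment altered survival: treated-mouse outcome over vehicle-mouse outcome, both groups bearing the transplanted tumour.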

Setting [1] is: dose: 50.0 mg/kg/injection, schedule: Q04DX003 (ip), vehicle: saline.
Setting [2] is: dose: 100.0 mg/kg/injection, schedule: Q04DX003 (ip), vehicle: saline.
Where [3] appears, read: dose: 50.0 mg/kg/injection, schedule: Q01DX009 (ip), vehicle: saline.
The mark [4] stands for this setting: dose: 200.0 mg/kg/injection, schedule: Q04DX003 (ip), vehicle: saline.
Where [5] appears, read: dose: 100.0 mg/kg/injection, schedule: Q04DX003 (ip), vehicle: Klucel (hydroxypropylcellulose) (HPC).
[6] abbreviates: dose: 200.0 mg/kg/injection, schedule: Q04DX003 (ip), vehicle: Klucel (hydroxypropylcellulose) (HPC).
[7] abbreviates: dose: 400.0 mg/kg/injection, schedule: Q04DX003 (ip), vehicle: Klucel (hydroxypropylcellulose) (HPC).
[8] abbreviates: dose: 6.25 mg/kg/injection, schedule: Q01DX009 (ip), vehicle: saline with Tween-80.
[9] abbreviates: dose: 12.5 mg/kg/injection, schedule: Q01DX009 (ip), vehicle: saline with Tween-80.
[10] abbreviates: dose: 25.0 mg/kg/injection, schedule: Q01DX009 (ip), vehicle: saline with Tween-80.
Where [11] appears, read: dose: 100.0 mg/kg/injection, schedule: Q04DX003 (ip), vehicle: saline with Tween-80.
Setting [12] is: dose: 200.0 mg/kg/injection, schedule: Q04DX003 (ip), vehicle: saline with Tween-80.
Where [13] appears, read: dose: 50.0 mg/kg/injection, schedule: Q04DX003 (ip), vehicle: saline with Tween-80.
Setting [14] is: dose: 100.0 mg/kg/injection, schedule: Q01DX009 (ip), vehicle: saline with Tween-80.
[15] abbreviates: dose: 50.0 mg/kg/injection, schedule: Q01DX009 (ip), vehicle: saline with Tween-80.

Molecules are shown by their SMILES. Where “and” joins values, the source holds several entries; their conditions need not be identical. Equal entries are not always repeated. Toxic doses and inconclusive results are not listed.

For `NS(=O)(=O)Cc1ccccc1`, the T/C runs as follows: (dose: 25.0 mg/kg/injection, schedule: Q04DX003 (ip), vehicle: saline) 100 % of control; under setting [1], 100 % of control; under setting [2], 100 % of control.

On to `CC(=O)OCC(=O)C1CCC=CC1OC(C)=O` (stereo not drawn), for which the T/C is, setting by setting: (dose: 25.0 mg/kg/injection, schedule: Q01DX009 (ip), vehicle: saline) 92 % of control; under setting [3], 104 % of control; under setting [1], 95 % of control; (dose: 100.0 mg/kg/injection, schedule: Q01DX009 (ip), vehicle: saline) 98 % of control; under setting [2], 101 % of control; (dose: 200.0 mg/kg/injection, schedule: Q01DX009 (ip), vehicle: saline) 104 % of control. Further, the T/C by setting is: under setting [4], 98 % of control and 120 % of control; (dose: 400.0 mg/kg/injection, schedule: Q01DX009 (ip), vehicle: saline) 88 % of control; (dose: 400.0 mg/kg/injection, schedule: Q04DX003 (ip), vehicle: saline) 93 % of control and 117 % of control.

In the case of `CCCCCCCCC(O)CCCCC` (stereo not drawn), the T/C reads like this: under setting [5], 108 % of control; under setting [6], 87 % of control; under setting [7], 95 % of control.

`COc1cc(NS(C)(=O)=O)ccc1Nc1c2cccc(C)c2nc2c(C)cccc12`: the T/C (dose: 1.57 mg/kg/injection, schedule: Q01DX009 (ip), vehicle: saline) was 176 % of control; the T/C (dose: 3.13 mg/kg/injection, schedule: Q01DX009 (ip), vehicle: saline with Tween-80) was 150 % of control; the T/C (dose: 3.13 mg/kg/injection, schedule: Q01DX009 (ip), vehicle: saline) was 201 % of control; the T/C under setting [8] is 169 % of control; the T/C under setting [9] was 186 % of control; the T/C (dose: 14.6 mg/kg/injection, schedule: Q04DX003 (ip), vehicle: saline) was 163 % of control. Moreover, the T/C is 163 % of control (dose: 22.0 mg/kg/injection, schedule: Q04DX003 (ip), vehicle: saline); 231 % of control under setting [10]; 159 % of control (dose: 33.0 mg/kg/injection, schedule: Q04DX003 (ip), vehicle: saline); 227 % of control under setting [1]; 272 % of control under setting [11]; 109 % of control under setting [12].

With `NS(=O)(=O)c1ccc(NC(=S)NC(=O)/C=C/c2ccccc2)cc1`, the T/C reads like this: (dose: 100.0 mg/kg/injection, schedule: Q04DX003 (sc), vehicle: olive oil, sesame oil, peanut oil) 90 % of control; (dose: 200.0 mg/kg/injection, schedule: Q04DX003 (sc), vehicle: olive oil, sesame oil, peanut oil) 90 % of control; (dose: 400.0 mg/kg/injection, schedule: Q04DX003 (sc), vehicle: olive oil, sesame oil, peanut oil) 90 % of control.

With `COc1cc(C#N)ccc1O`, the T/C reads like this: (dose: 100.0 mg/kg/injection, schedule: Q01DX009 (ip), vehicle: gum acacia) 100 % of control; (dose: 100.0 mg/kg/injection, schedule: Q04DX003 (ip), vehicle: gum acacia) 92 % of control; (dose: 200.0 mg/kg/injection, schedule: Q01DX009 (ip), vehicle: gum acacia) 87 % of control; (dose: 200.0 mg/kg/injection, schedule: Q04DX003 (ip), vehicle: gum acacia) 88 % of control.

As for `C[Si](C)(C)O[Si](C)(C)c1ccccc1`, the T/C (dose: 100.0 mg/kg/injection, schedule: Q01DX001 (ip), vehicle: saline) is 104 % of control; the T/C (dose: 200.0 mg/kg/injection, schedule: Q01DX001 (ip), vehicle: saline) is 95 % of control; the T/C (dose: 400.0 mg/kg/injection, schedule: Q01DX001 (ip), vehicle: saline) is 95 % of control.

Turning to `Cc1ccc(C(=O)Cl)cc1S(=O)(=O)F`, the T/C under setting [10] was 100 % of control; the T/C under setting [13] is 101 % of control; the T/C under setting [14] is 93 % of control; the T/C under setting [11] is 109 % of control; the T/C under setting [12] was 101 % of control.

In the case of `S=C1N=C2c3ccccc3C2C(=S)S1` (stereo not drawn), the T/C by setting is: under setting [15], 109 % of control; under setting [14], 98 % of control; (dose: 150.0 mg/kg/injection, schedule: Q01DX009 (ip), vehicle: saline with Tween-80) 94 % of control.

Consider `c1cc2c(cc1C1SCSCS1)OCO2`, for which the T/C under setting [5] is 90 % of control, the T/C under setting [6] is 100 % of control and the T/C under setting [7] was 100 % of control.

In the case of `O=C(O)C1CCC(=O)N1C(=O)OCc1ccccc1` (stereo not drawn), the T/C is 90 % of control under setting [14]; 90 % of control (dose: 200.0 mg/kg/injection, schedule: Q01DX009 (ip), vehicle: saline with Tween-80); 95 % of control (dose: 400.0 mg/kg/injection, schedule: Q01DX009 (ip), vehicle: saline with Tween-80).

Regarding `COc1cc(C=O)c(C=O)cc1OC`, the T/C is, setting by setting: (dose: 6.25 mg/kg/injection, schedule: Q04DX003 (ip), vehicle: saline with Tween-80) 110 % of control; (dose: 12.5 mg/kg/injection, schedule: Q04DX003 (ip), vehicle: saline with Tween-80) 106 % of control; (dose: 25.0 mg/kg/injection, schedule: Q04DX003 (ip), vehicle: saline with Tween-80) 106 % of control; under setting [11], 97 % of control.

Turning to `CN(C)[C@@H]1C(=O)C(C(=O)NCN(CCCl)CCCl)=C(O)[C@@]2(O)C(=O)C3=C(O)c4c(O)cccc4[C@@](C)(O)[C@H]3C[C@@H]12`, the T/C reads like this: (dose: 3.12 mg/kg/injection, schedule: Q01DX009 (ip), vehicle: saline with Tween-80) 104 % of control; (dose: 6.25 mg/kg/injection, schedule: Q01DX009 (ip), vehicle: Klucel (hydroxypropylcellulose) (HPC)) 91 % of control; under setting [8], 100 % of control; (dose: 9.0 mg/kg/injection, schedule: Q01DX009 (ip), vehicle: saline) 159 % of control; (dose: 12.5 mg/kg/injection, schedule: Q01DX009 (ip), vehicle: Klucel (hydroxypropylcellulose) (HPC)) 108 % of control; under setting [9], 100 % of control. Besides, the T/C (dose: 14.0 mg/kg/injection, schedule: Q01DX009 (ip), vehicle: saline) is 172 % of control; the T/C (dose: 20.0 mg/kg/injection, schedule: Q04DX003 (ip), vehicle: saline) was 150 % of control; the T/C (dose: 22.0 mg/kg/injection, schedule: Q01DX009 (ip), vehicle: saline) is 161 % of control and 209 % of control; the T/C under setting [10] is 90 % of control and 109 % of control; the T/C (dose: 33.0 mg/kg/injection, schedule: Q01DX009 (ip), vehicle: saline) is 169 % of control; the T/C (dose: 33.0 mg/kg/injection, schedule: Q04DX003 (ip), vehicle: saline with Tween-80) is 163 % of control. The T/C is, setting by setting: (dose: 44.0 mg/kg/injection, schedule: Q04DX003 (ip), vehicle: saline) 186 % of control; (dose: 50.0 mg/kg/injection, schedule: Q01DX009 (ip), vehicle: Klucel (hydroxypropylcellulose) (HPC)) 163 % of control; under setting [15], 86 % of control and 109 % of control; under setting [3], 203 % of control and 208 % of control; under setting [13], 186 % of control; (dose: 67.0 mg/kg/injection, schedule: Q04DX003 (ip), vehicle: saline) 196 % of control. For the same compound, the T/C is, setting by setting: (dose: 75.0 mg/kg/injection, schedule: Q01DX009 (ip), vehicle: saline) 211 % of control; (dose: 75.0 mg/kg/injection, schedule: Q04DX003 (ip), vehicle: saline with Tween-80) 218 % of control; under setting [14], 109 % of control; under setting [2], 229 % of control and 220 % of control; under setting [4], 91 % of control.

For `Oc1ccccc1C=Nc1ccccc1.Oc1ccccc1C=Nc1ccccc1.[Ni+2]`, the T/C was 100 % of control (dose: 25.0 mg/kg/injection, schedule: Q04DX003 (ip), vehicle: saline sonified) and 113 % of control (dose: 50.0 mg/kg/injection, schedule: Q04DX003 (ip), vehicle: saline sonified).

With `CC12CCC(C=C1N1CCOCC1)C(C)(C)O2` (stereo not drawn), the T/C is, setting by setting: (dose: 50.0 mg/kg/injection, schedule: Q01DX005 (ip), vehicle: saline) 114 % of control; (dose: 100.0 mg/kg/injection, schedule: Q01DX005 (ip), vehicle: saline) 122 % of control; (dose: 200.0 mg/kg/injection, schedule: Q01DX005 (ip), vehicle: saline) 111 % of control.

The values are drawn from PubChem BioAssay AID328 (DTP/NCI, 2004).
